Measured values from article PMC6478823, “A suite of phenotypic assays to ensure pipeline diversity when prioritizing drug-like Cryptosporidium growth inhibitors” (Nature Communications, 2019).
Where “and” joins values, the source holds several entries; their conditions need not be identical. Equal entries are not always repeated. Where two headings read alike, the source gives them in different places.

Legend:
Assay type in all cases: cell-based, Cryptosporidium parvum
C. parvum [1] = conditions: compound at EC90; for Invasion Assay: Mean % Inhibition (parasites), Average: average of replicates; for Invasion Assay: Mean % Inhibition (parasites), Replicate 1a: single biological replicate 1; for Invasion Assay: Mean % Inhibition (parasites), Replicate 2a: single biological replicate 2; for Sporozoite invasion: yes/no grouping by phenotypic assay result; for Invasion Assay: Mean % Inhibition (parasites), Replicate 3a: single biological replicate 3; for Invasion Assay: Mean % Inhibition (parasites), Replicate 4a: single biological replicate 4; for effect on host cell invasion / parasitophorous vacuole formation: result in words
Protocol: The first step in infection is host cell invasion, which involves a complex process encompassing oocyst excystation, parasite motility, adhesion, and parasitophorous vacuole formation (Fig. 2a). Our strategy to assay for compounds affecting invasion was simply to expose C. parvum to compounds immediately after triggering excystation and throughout the invasion process, and then enumerate the parasite vacuoles after 3 h, prior to allowing the parasites to replicate (summarized in Fig. 2b).
Fig. 2 Invasion Assay. a Overview of life cycle stage investigated during the invasion assay. Representative TEM images of a C. parvum oocyst and HCT-8 cell shortly after infection (Scale bar = 500 nm). b Schematic of experimental design. […] Each point represents the mean and SD of at least two biological replicates with four technical replicates per experiment.
C. parvum invasion inhibition was measured by modifying the 48 h growth inhibition assay described above. […] In parallel, Iowa strain oocysts were excysted. […] Assay plates were incubated at 37 °C and 5% CO2 for 3 h.

C. parvum [2] = test: DNA replication assay (EdU incorporation); conditions: compound at EC90; for DNA Synthesis Assay: Mean % Inhibition of EdU-labeling (normalized to parasite numbers), Average: average of replicates; for DNA Synthesis Assay: Mean % Inhibition of EdU-labeling (normalized to parasite numbers), Replicate 1: single replicate 1; for DNA Synthesis Assay: Mean % Inhibition of EdU-labeling (normalized to parasite numbers), Replicate 2: single replicate 2; for DNA Synthesis Assay: Mean % Inhibition of EdU-labeling (normalized to parasite numbers), Replicate 3: single replicate 3; for DNA synthesis: yes/no grouping by phenotypic assay result; for DNA Synthesis Assay: Mean % Inhibition of EdU-labeling (normalized to parasite numbers), Replicate 4: single replicate 4
[3] = system: C. parvum DMC1 expression; test: Sexual differentiation assay (DMC1 expression); conditions: for Asexual to sexual differentiation: Mean % DMC1 inhibition (normalized to host nuclei), Average: average of replicates; for Asexual to sexual differentiation: Mean % DMC1 inhibition (normalized to host nuclei), Replicate 1a: single replicate 1; for Asexual to sexual differentiation: Mean % DMC1 inhibition (normalized to host nuclei), Replicate 2a: single replicate 2; for 48 - 72 h DMC1 (asexual to sexual conversion): Mean % DMC1 inhibition (normalized to host nuclei): replicates 1-2; for Asexual to sexual differentiation: Mean % DMC1 inhibition (normalized to host nuclei), Replicate 3a: single replicate 3
Text: We utilized DMC1 as a marker of C. parvum sexual development, and used the anti-DMC1 monoclonal antibody to develop a moderate-throughput high-content microscopy assay for characterizing anticryptosporidial compounds (Fig. 6a). […] Therefore, in order to enable numerical comparison of the ability of compounds to block sexual development with moderate throughput, we adopted a strategy of reporting the percent inhibition of DMC1 expression by the previously determined EC90 of each compound in the standard asexual development assay (Fig. 6c and Supplementary Table 2).
Fig. 6 Assay to measure asexual-to-sexual-stage conversion. a Schematic of the experimental approach. […] For b and c the mean and SD combined from at least two biological replicates with four technical replicates per experiment are shown. […] At given time points post-infection, infected cells were washed 3 times with PBS containing 111 mM of D-galactose, fixed for 15 min at room temperature with 4% paraformaldehyde in PBS, and permeabilized with 0.25% triton X-100 in PBS for 10 min at 37 °C. Cells were then washed 3 times with PBS and blocked at least overnight at 4 °C with 1% BSA in PBS (blocking buffer). Cells were stained with monoclonal antibody (1H10G7), either neat culture supernatant or 12.8 µg/mL of purified IgG in blocking buffer for 1 h at 37 °C, followed by 2 washes with PBS. Cells were then co-stained with a 1:500 dilution (4 µg/mL) of Alexa Fluor 568 goat anti-mouse IgG (Invitrogen, catalog# A-11004) and 1.33 µg/mL fluorescein-labeled Vicia villosa lectin (Vector Laboratories, catalog# FL-1231) diluted in blocking buffer for 1 h at 37 °C. Stains were then removed and 0.09 mM Hoechst 33258 (AnaSpec, catalog# AS-83219) also diluted in blocking buffer was added for another 15 min at 37 °C, followed by 2 PBS washes and imaging on a Nikon Eclipse Ti2000 epifluorescence microscope run with NIS-Elements Advanced Research software (Nikon, USA) and equipped with an EXi blue fluorescent microscopy camera (QImaging, Canada). For enumerating parasites, tiled 2 × 2 images with 15% overlapping edges were taken using a 40 × dry objective (0.7 NA), and for finer details, Z stack images were acquired using a 60 × oil objective (1.4 NA). Lectin positive cells in focus were first counted, followed by DMC1.
For compound dose-response studies, the same assay was performed in 384-well plates and imaged using a 20 × dry objective (NA = 0.45). Tiled 4 × 4 to 6 × 6 images were taken. Images were analyzed using ImageJ software and the custom macro provided in Supplementary Method 2.

[4] = compound at asexual EC90, 48-72 h

Compound	Invasion Assay: Mean % Inhibition (parasites), Average (C. parvum [1]) [%]	Invasion Assay: Mean % Inhibition (parasites), Replicate 1a (C. parvum [1]) [%]	Invasion Assay: Mean % Inhibition (parasites), Replicate 2a (C. parvum [1]) [%]	Sporozoite invasion (C. parvum [1])	DNA Synthesis Assay: Mean % Inhibition of EdU-labeling (normalized to parasite numbers), Average (C. parvum [2]) [%]	DNA Synthesis Assay: Mean % Inhibition of EdU-labeling (normalized to parasite numbers), Replicate 1 (C. parvum [2]) [%]	DNA Synthesis Assay: Mean % Inhibition of EdU-labeling (normalized to parasite numbers), Replicate 2 (C. parvum [2]) [%]	DNA Synthesis Assay: Mean % Inhibition of EdU-labeling (normalized to parasite numbers), Replicate 3 (C. parvum [2]) [%]	DNA synthesis (C. parvum [2])	Asexual to sexual differentiation: Mean % DMC1 inhibition (normalized to host nuclei), Average [3, 4] [%]	Asexual to sexual differentiation: Mean % DMC1 inhibition (normalized to host nuclei), Replicate 1a [3, 4] [%]	Asexual to sexual differentiation: Mean % DMC1 inhibition (normalized to host nuclei), Replicate 2a [3, 4] [%]	Invasion Assay: Mean % Inhibition (parasites), Replicate 3a (C. parvum [1]) [%]	Invasion Assay: Mean % Inhibition (parasites), Replicate 4a (C. parvum [1]) [%]	Asexual to sexual differentiation: Mean % DMC1 inhibition (normalized to host nuclei), Replicate 3a [3, 4] [%]	DNA Synthesis Assay: Mean % Inhibition of EdU-labeling (normalized to parasite numbers), Replicate 4 (C. parvum [2]) [%]	also measured
[H]/N=C(/NCCCCC)N/N=C/c1c[nH]c2ccc(OC)cc12 [Tegaserod]	13.93	26	2	no	-6.72	-11.69	-25.63	17.15	no	12.05	41.94	-17.83					
c1ccc(CNc2nc(Nc3ccccc3)nc3ccccc23)cc1 [B-1]	56.43	55	63	yes	-31.43	-48.95	-39.64	-5.71	no	18.08	32.96	-3.57	42	66	17.22		48 - 72 h DMC1 (asexual to sexual conversion): Mean % DMC1 inhibition (normalized to host nuclei) ([3]; B-1 at log[MMV006169] (µM) 0.22): -6.54% and 4.81%; 48 - 72 h DMC1 (asexual to sexual conversion): Mean % DMC1 inhibition (normalized to host nuclei) ([3]; B-1 at log[MMV006169] (µM) 0.52): -9.41% and 15.73%; 48 - 72 h DMC1 (asexual to sexual conversion): Mean % DMC1 inhibition (normalized to host nuclei) ([3]; B-1 at log[MMV006169] (µM) 0.70): -14.15% and 22.48%; 48 - 72 h DMC1 (asexual to sexual conversion): Mean % DMC1 inhibition (normalized to host nuclei) ([3]; B-1 at log[MMV006169] (µM) 1.00): 25.47% and 51.27%; 48 - 72 h DMC1 (asexual to sexual conversion): Mean % DMC1 inhibition (normalized to host nuclei) ([3]; B-1 at log[MMV006169] (µM) -0.25): 2.94% and -1.61%; 48 - 72 h DMC1 (asexual to sexual conversion): Mean % DMC1 inhibition (normalized to host nuclei) ([3]; B-1 at log[MMV006169] (µM) -0.73): 13.51% and -3.18%; 48 - 72 h DMC1 (asexual to sexual conversion): Mean % DMC1 inhibition (normalized to host nuclei) ([3]; B-1 at log[MMV006169] (µM) -1.21): 14.75% and -24.05%; 48 - 72 h DMC1 (asexual to sexual conversion): Mean % DMC1 inhibition (normalized to host nuclei) ([3]; B-1 at log[MMV006169] (µM) -1.69): 19.37% and -12.74%; 48 - 72 h DMC1 (asexual to sexual conversion): Mean % DMC1 inhibition (normalized to host nuclei) ([3]; B-1 at log[MMV006169] (µM) -2.16): 9.35% and -23.05%; activity in the DMC1 (sexual development) assay relative to asexual assay ([3]; compound added at 48 h, read at 72 h, result in words): less potent when used during the sexual phases of development; Asexual to sexual differentiation: Mean % DMC1 inhibition (normalized to host nuclei), Replicate 4a ([3]; compound at asexual EC90, 48-72 h, single replicate 4): 25.70%; EC50 ([3]; inhibition of DMC1 expression from 48 to 72 h, range in brackets, read-out: 48 − 72 h DMC1 (asexual to sexual conversion): EC50): 11 µM
Cc1cccc(-n2ncc3c(=O)[nH]c(-n4nc(C)cc4NC(=O)C4CCCC4)nc32)c1 [C-5]	13.07	31	-4.39		98.17	96.33	100.00			52.89	39.80	65.99					
O=C(Nc1nc(-c2ccccn2)cs1)c1ccccc1Br [MMV665909]	-12.01	-8.54	-15		90.80	100.00	100.00	80.23		53.05	56.13	49.96				80.99	DNA Synthesis Assay: Mean % Inhibition of EdU-labeling (normalized to parasite numbers), Replicate 5 (C. parvum [2]; single replicate 5): 92.80%
Cc1cccc(-n2ncc3c(O)nc(-n4nc(C)cc4NC(=O)c4cc5ccccc5o4)nc32)c1 [C-1]	-10.80	-29	-22		91.44	100	100	74.32		30.35	26.21	37.12	9	-0.416	27.73		
CN(C)C[C@H](O)Cn1c2ccc(Br)cc2c2cc(Br)ccc21 (racemic) [Wiskostatin]	88.58	90	92		36.39	67.16	42.34	31.25		45.76	43.95	47.58	82	90		4.83	effect on host cell invasion / parasitophorous vacuole formation (C. parvum [1]): inhibited parasitophorous vacuole formation; effect on host cell invasion / parasitophorous vacuole formation (C. parvum [1]; listed as wiskostatin): active; effect on C. parvum DNA replication / EdU incorporation (C. parvum [2]; result in words): active
